pIC50, pKd: −log10 of the molar value. Like-named read-outs stand apart in the source and are kept apart here. No end group written: not given here.
Legend:
HLA-A*0201 = HLA-A*0201 (Homo sapiens, UniProt P04439, D140Y/D185E/D98H/E176V/E277Q/G131W/G231S/I119V/I121R/I166T/I218V/L300P/L318F/N151K/N90K/P208A/P217A/Q86G/Q94H/R138H/R169H/T345S); assay: MHC-peptide binding assay (inhibition of binding of radiolabeled standard peptide); details: for IC50: MHC binding assay, measured IC50 approximates Kd, no unit in table, text b40 speaks of nM, read-out: Affinity (c) HLA-A*0201
Protocol: (§2) Briefly, 1-10 nM of radiolabeled peptides were co-incubated with 1 M-1 nM purified MHC and 1-3 human β2-microglobulin. After 2 days, binding of radiolabeled peptide to corresponding MHC Class I molecule was determined by capturing MHC-peptide complexes on Greiner GREINER® Lumitrac 600 microplates coated with W6/32 antibody and measuring bound counts per minutes using a Topcount microscintillation counter. […] Under conditions used, where [radiolabeled probe]<[MHC] and IC50≧[MHC], measured IC50 values are reasonable approximations of true Kd values.

HLA-A*0203 = HLA-A*0203 (Homo sapiens, UniProt P04439, A173T/D140Y/D185E/D98H/E277Q/G131W/G231S/I119V/I121R/I166T/I218V/L180W/L300P/L318F/N151K/N90K/P208A/P217A/Q86G/Q94H/R138H/R169H/T345S); assay: MHC-peptide binding assay
Protocol: as §2

[1] = system: Splenic T cells from HLA-A*0201 mice; assay: IFN-γ ELISpot with splenocytes of immunized HLA-A*0201 transgenic mice; format: in vivo; details: for IFN-γ production in vitro by T cells from immunized mice: HLA-A*0201 mice immunized with pooled peptides alone, stimulated with the individual peptide; for IFN-γ production from T cells of immunized mice: HLA-A*0201 mice immunized with pooled peptides plus PADRE
Protocol: Eleven to fourteen days post immuniztion, spleen cells were isolated and exposed to each individual peptide.
5×10^5 splenocytes were plated per well. All antibodies and reagents used for ELISpot assays were obtained from Mabtech (Cincinnati, Ohio). Cells were plated in at least 3 replicate wells for each condition. Results were expressed as number of spot forming cells (SFCs) per 10^6 PBMCs or per 10^6 murine splenocytes.
Mice were boosted once at a 2-week interval.
Three to five mice from each group were euthanized 7 to 14 days after the last immunization. Spleens were harvested, pressed through a 70 μm screen to form a single-cell suspension, and depleted of erythrocytes with ASK lysis buffer (160 mM NH4Cl, 10 mM KHCO3, 100 μM EDTA).
Each ELISpot experiment was replicated a minimum of twice. P values of ≦0.05 were considered significant.

HLA-A*0202 = HLA-A*0202 (Homo sapiens, UniProt P04439, D140Y/D185E/D98H/E176V/E277Q/G131W/G231S/I119L/I121R/I166T/I218V/L180W/L300P/L318F/N151K/N90K/P208A/P217A/Q67R/Q86G/Q94H/R138H/R169H/T345S); assay: biochemical
Protocol: as §2

[2] = system: splenocytes from HLA-A*1101 transgenic mice; assay: IFN-γ ELISpot with splenocytes of immunized HLA-A*1101 transgenic mice; format: in vivo; details: for IFN-γ production by splenocytes of lipopeptide-immunized mice: HLA-A*1101 mice immunized twice at three week intervals with lipopeptide in PBS, stimulated with peptides
Protocol: As controls, mice were injected with PBS. Mice were vaccinated twice at 3-week intervals.
Murine splenocytes: Mice were euthanized 7 to 14 days after immunization. Spleens were harvested, pressed through a 70 μm screen to form a single-cell suspension, and depleted of erythrocytes with AKC lysis buffer (160 mM NH4Cl, 10 mM KHCO3, 100 μM EDTA).
5×10^5 splenocytes were plated per well.
Both murine and human cells were plated in at least 3 replicate wells for each condition. Results were expressed as number of spot forming cells (SFCs) per 10^6 PBMCs or per 10^6 murine splenocytes.
All mouse experiments were repeated at least twice, with 4-5 mice for each group.

HLA-A*1101 = HLA-A*1101 (Homo sapiens, UniProt P04439, A114D/D185E/E176A/F33Y/L180Q/S129P/T187R); assay: MHC-peptide binding assay; details: unit inferred
Text: Under conditions used, where [radiolabeled probe]<[MHC] and IC50≧[MHC], measured IC50 values are reasonable approximations of true Kd values.

HLA-A*0301 = HLA-A*0301 (Homo sapiens, UniProt P04439); assay: MHC-peptide binding assay; details: MHC binding affinity; IC50 approximates Kd; unit inferred
Text: (§1) Assays were as described in Sidney, J., et al. Immunome Res 4, 2 (2008).

HLA-A*3001 = HLA-A*3001 (Homo sapiens, UniProt P04439, D140H/D185E/E176W/F33S/G80R/H175R/K168Q/R138E/R41S); assay: MHC-peptide binding assay; details: MHC binding affinity; IC50 approximates Kd; unit inferred
Text: as §1

HLA-A*3101 = HLA-A*3101 (Homo sapiens, UniProt P04439, A270S/D185E/E176V/E277Q/F33T/G231S/G80R/H175R/I121M/I218V/I322F/K168Q/L300P/L318F/M331R/P217A/Q94H/R138Q/T323A/T345S/T97I/V358M); assay: MHC-peptide binding assay; details: MHC binding affinity; IC50 approximates Kd; unit inferred
Text: as §1

HLA-A*3301 = HLA-A*3301 (Homo sapiens, UniProt P04439, A270S/D185E/E176V/E277Q/E87N/F33T/G231S/H175R/I121M/I218V/I322F/K168Q/K210R/L300P/L318F/M331R/P217A/Q86R/Q94H/R138Q/T323A/T345S/T97I/V358M/Y195H); assay: MHC-peptide binding assay; details: MHC binding affinity; IC50 approximates Kd; unit inferred
Text: as §1

HLA-A*6801 = HLA-A*6801 (Homo sapiens, UniProt P04439, A269V/D185E/E176V/E277Q/E87N/F33Y/G231S/I121M/I166T/I218V/L180W/L300P/L318F/N151K/P208A/P217A/Q86R/R169H/T345S); assay: MHC-peptide binding assay; details: MHC binding affinity; IC50 approximates Kd; unit inferred
Text: as §1

HLA-A03 supertype = assay: MHC-peptide binding assay, number of supertype alleles bound; parameters: species or system human; details: of six HLA-A03 supertype alleles tested
Text: as §1

[3] = system: splenocytes from HLA-B*0702 transgenic mice; details: HF10 administered as lipopeptide with PADRE or with MLA, earlier work; cited from earlier work
[4] = Table 3, MHC binding assay, read-out: Affinity^b HLA-A*1101

Compound: FLTDYIPGA [SAG3136-144]
- IC50 (HLA-A*0201): 0.7 nM

Compound: FLSLSLLVI [SAG2C38-46]
- pKd (HLA-A*0201): < 7.30
- IC50 (HLA-A*0201): 736 nM
- pKd (HLA-A*0203): 6.30 to 7.30
- IFN-γ production in vitro by T cells from immunized mice [1]: significant IFN-γ production
- IFN-γ production from T cells of immunized mice [1]: significant IFN-γ production
- pKd (HLA-A*0202): 6.30 to 7.30

Compound: GLAAAVVAV [SPA82-90]
- IC50 (HLA-A*0201): 9.6 nM

Compound: FMIAFISCFA [SAG2D180-189]
- IC50 (HLA-A*0201): 32 nM
- IFN-γ production in vitro by T cells from immunized mice [1]: significant IFN-γ production
- IFN-γ production from T cells of immunized mice [1]: significant IFN-γ production

Compound: ITMGSLFFV [SPA12-20]
- IC50 (HLA-A*0201): 0.16 nM

Compound: CC(C)C[C@H](NC(=O)[C@H](CC(C)C)NC(=O)[C@H](CC(=O)O)NC(=O)[C@H](CCCCN)NC(=O)[C@H](Cc1ccccc1)NC(=O)[C@H](CO)NC(=O)[C@@H](N)CCCNC(=N)N)C(=O)N[C@@H](CCCCN)C(=O)N[C@@H](CCCCN)C(=O)O
- IFN-γ production on stimulation of spleen cells with the peptide ([2]; HLA-A*1101 mice immunized with a mixture of peptides and adjuvants): not present

Compound: FLLGLLVHV [SAG3375-383]
- IC50 (HLA-A*0201): 6.4 nM
- IFN-γ production from T cells of immunized mice [1]: significant IFN-γ production

Compound: STFWPCLLR
- pIC50 (HLA-A*1101; MHC binding affinity, Table 2b, IC50 approximates Kd, read-out: HLA-A*1101): 8.00
- pIC50 (HLA-A*0301): 7.66
- pIC50 (HLA-A*3001): 5.90
- pIC50 (HLA-A*3101): 8.92
- pIC50 (HLA-A*3301): 8.47
- pIC50 (HLA-A*6801): 9.01
- SUPERTYPE ALLELES BOUND (HLA-A03 supertype): 5

Compound: FMIVSISLV [SAG2X351-359]
- IC50 (HLA-A*0201): 16 nM
- IFN-γ production from T cells of immunized mice [1]: significant IFN-γ production

Compound: LpKS9: lipopeptide: palmitic acid-bearing lysine, PADRE, then KSFKDILPK (SAG1224-232)
- IFN-γ production by splenocytes of lipopeptide-immunized mice [2]: higher IFN-γ production than LpRS9

Compound: AVVSLLRLLK
- pIC50 (HLA-A*1101; [4]): 7.47
- pIC50 (HLA-A*0301): 7.77
- pIC50 (HLA-A*3001): 8.09
- pIC50 (HLA-A*3101): 5.89
- pIC50 (HLA-A*3301): 5.96
- pIC50 (HLA-A*6801): 7.03
- SUPERTYPE ALLELES BOUND (HLA-A03 supertype): 4

Compound: FVIFACNFV [SAG2X44-52]
- IC50 (HLA-A*0201): 34 nM
- IFN-γ production from T cells of immunized mice [1]: significant IFN-γ production

Compound: LpAM9: lipopeptide: palmitic acid-bearing lysine, PADRE, then AMLTAFFLR (GRA6164-172)
- IFN-γ production by splenocytes of lipopeptide-immunized mice [2]: higher IFN-γ production than LpRS9

Compound: SSAYVFSVK
- pIC50 (HLA-A*1101; [4]): 8.00
- pIC50 (HLA-A*0301): 7.92
- pIC50 (HLA-A*3001): 5.74
- pIC50 (HLA-A*3101): 7.01
- pIC50 (HLA-A*3301): 6.74
- pIC50 (HLA-A*6801): 8.68
- SUPERTYPE ALLELES BOUND (HLA-A03 supertype): 5

Compound: HPGSVNEFDF (listed as Toxoplasma gondii) [HF10]
- immunogenic in HLA-B07 transgenic mice [3]: not immunogenic

Source: patent US9408899B2, “Vaccines against Toxoplasma gondii” (priority 2010, dated 2016)
